Measured values reported in PMC9021288 (Nature Communications, 2022).
Where two headings read alike, the source gives them in different places.

What was measured:
human recombinant CYP3A4 = molecular target: T1, human recombinant CYP3A4 (Homo sapiens, UniProt P08684); experiment: CYP reaction phenotyping; type: in vitro ADME; conditions: for Compound remaining (0 min = 100): CYP3A4
T1 construct: purchased Bactosomes (assay run at Cyprotex)
Method: In vitro CYP reaction phenotyping was performed at Cyprotex (Alderly Park, United Kingdom). […] The remaining test compound at each time point was analyzed by LC-MS/MS.

[1] = test system: TA98, TA100, TA102, TA1535, TA1537
Method: Safety studies were performed by commercial services using their standard protocols. […] Genotoxicity was investigated using the Ames test (Bacterial Reverse Mutation Assay) (Covance Laboratories Ltd, North Yorkshire, England). In vitro mammalian cell micronucleus screening assay was studied in human peripheral blood lymphocytes (BioReliance Corporation, Rockville, USA). Cardiotoxicity was determined against the hERG channel in an automated patch clamp assay using the Qpatch or against the hNaV 1.5, hKV 1.5 and hCaV 1.2 using a manual patch-clamp technique (Metrion Biosciences, Cambridge, UK). Cytotoxicity in human and rat primary hepatocytes was assessed using the CellTiter-Blue assay performed by commercial services (KaLy-Cell). The viability of HepG2 cells was monitored through the addition of 1 mM resazurin. Following 6 h incubation, the relative amount of reduced resazurin was detected in a fluorimeter and compared to the assay controls (vehicle: 0.1% DMSO and positive control: 10 µM puromycin).

T1 sequence (P08684 whole entry): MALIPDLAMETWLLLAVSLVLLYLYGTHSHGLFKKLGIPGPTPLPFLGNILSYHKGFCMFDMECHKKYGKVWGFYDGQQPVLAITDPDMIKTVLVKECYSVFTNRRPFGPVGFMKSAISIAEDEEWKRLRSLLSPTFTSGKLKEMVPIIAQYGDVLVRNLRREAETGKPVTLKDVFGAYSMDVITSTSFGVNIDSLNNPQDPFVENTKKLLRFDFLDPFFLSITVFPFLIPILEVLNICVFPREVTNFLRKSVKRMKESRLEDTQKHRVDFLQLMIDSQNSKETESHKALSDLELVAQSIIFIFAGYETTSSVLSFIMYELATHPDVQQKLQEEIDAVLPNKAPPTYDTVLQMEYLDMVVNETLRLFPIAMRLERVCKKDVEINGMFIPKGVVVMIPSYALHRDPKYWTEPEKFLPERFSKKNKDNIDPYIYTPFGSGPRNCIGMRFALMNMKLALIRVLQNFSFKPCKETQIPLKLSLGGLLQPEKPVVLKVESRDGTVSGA

## C[C@@H](CNC(=O)[C@H](O)C(C)(C)CO)NC(=O)c1cc(F)c(F)cc1F [MMV693183]
Human recombinant CYP3A4; 1 µM, 45 min
  role in oxidative metabolism: responsible for the oxidative metabolism
Human recombinant CYP3A4; Incubation time (minutes) 0
  Compound remaining (0 min = 100): 100
Human recombinant CYP3A4; Incubation time (minutes) 5
  Compound remaining (0 min = 100): 101
Human recombinant CYP3A4; Incubation time (minutes) 15
  Compound remaining (0 min = 100): 94.1
Human recombinant CYP3A4; Incubation time (minutes) 30
  Compound remaining (0 min = 100): 90.1
Human recombinant CYP3A4; Incubation time (minutes) 45
  Compound remaining (0 min = 100): 91.5
[1]; TA98, +S-9, 5 ug/plate
  Fold Increase: 1.1
  Mean (Revertant Numbers Per Plate): 36.3
[1]; TA98, +S-9, 16 ug/plate
  Fold Increase: 1.1
  Mean (Revertant Numbers Per Plate): 37
[1]; TA98, +S-9, 50 ug/plate
  Fold Increase: 1.2
  Mean (Revertant Numbers Per Plate): 39.7
[1]; TA98, +S-9, 160 ug/plate
  Fold Increase: 1.1
  Mean (Revertant Numbers Per Plate): 36.7
[1]; TA98, +S-9, 500 ug/plate
  Fold Increase: 1.3
  Mean (Revertant Numbers Per Plate): 42.3
[1]; TA98, +S-9, 1600 ug/plate
  Fold Increase: 1
  Mean (Revertant Numbers Per Plate): 32.3
[1]; TA98, +S-9, 5000 ug/plate
  Fold Increase: 0.8
  Mean (Revertant Numbers Per Plate): 26.3
[1]; TA98, -S-9, 5 ug/plate
  Fold Increase: 0.8
  Mean (Revertant Numbers Per Plate): 22.3
[1]; TA98, -S-9, 16 ug/plate
  Fold Increase: 1.1
  Mean (Revertant Numbers Per Plate): 29.7
[1]; TA98, -S-9, 50 ug/plate
  Fold Increase: 0.9
  Mean (Revertant Numbers Per Plate): 26.3
[1]; TA98, -S-9, 160 ug/plate
  Fold Increase: 0.8
  Mean (Revertant Numbers Per Plate): 23.7
[1]; TA98, -S-9, 500 ug/plate
  Fold Increase: 0.7
  Mean (Revertant Numbers Per Plate): 20.3
[1]; TA98, -S-9, 1600 ug/plate
  Fold Increase: 0.8
  Mean (Revertant Numbers Per Plate): 22.7
[1]; TA98, -S-9, 5000 ug/plate
  Fold Increase: 1
  Mean (Revertant Numbers Per Plate): 26.7
[1]; TA98, TA100
  difference in revertant numbers vs control: < 2 fold
[1]; TA100, +S-9, 5 ug/plate
  Fold Increase: 0.9
  Mean (Revertant Numbers Per Plate): 107.3
[1]; TA100, +S-9, 16 ug/plate
  Fold Increase: 1
  Mean (Revertant Numbers Per Plate): 122.7
[1]; TA100, +S-9, 50 ug/plate
  Fold Increase: 1.1
  Mean (Revertant Numbers Per Plate): 128.3
[1]; TA100, +S-9, 160 ug/plate
  Fold Increase: 1
  Mean (Revertant Numbers Per Plate): 114.7
[1]; TA100, +S-9, 500 ug/plate
  Fold Increase: 1.1
  Mean (Revertant Numbers Per Plate): 135
[1]; TA100, +S-9, 1600 ug/plate
  Fold Increase: 0.9
  Mean (Revertant Numbers Per Plate): 104
[1]; TA100, +S-9, 5000 ug/plate
  Fold Increase: 1
  Mean (Revertant Numbers Per Plate): 115.7
[1]; TA100, -S-9, 5 ug/plate
  Fold Increase: 1.1
  Mean (Revertant Numbers Per Plate): 99.3
[1]; TA100, -S-9, 16 ug/plate
  Fold Increase: 1.1
  Mean (Revertant Numbers Per Plate): 94
[1]; TA100, -S-9, 50 ug/plate
  Fold Increase: 1.2
  Mean (Revertant Numbers Per Plate): 108.3
[1]; TA100, -S-9, 160 ug/plate
  Fold Increase: 1
  Mean (Revertant Numbers Per Plate): 86.3
[1]; TA100, -S-9, 500 ug/plate
  Fold Increase: 1.1
  Mean (Revertant Numbers Per Plate): 93
[1]; TA100, -S-9, 1600 ug/plate
  Fold Increase: 1.2
  Mean (Revertant Numbers Per Plate): 102
[1]; TA100, -S-9, 5000 ug/plate
  Fold Increase: 1.1
  Mean (Revertant Numbers Per Plate): 93
[1]; TA102
  difference in revertant numbers vs control: < 1.5 fold
[1]; TA102, +S-9, 5 ug/plate
  Fold Increase: 1.3
  Mean (Revertant Numbers Per Plate): 285
[1]; TA102, +S-9, 16 ug/plate
  Fold Increase: 1.3
  Mean (Revertant Numbers Per Plate): 295.7
[1]; TA102, +S-9, 50 ug/plate
  Fold Increase: 1.3
  Mean (Revertant Numbers Per Plate): 295
[1]; TA102, +S-9, 160 ug/plate
  Fold Increase: 1.3
  Mean (Revertant Numbers Per Plate): 298.7
[1]; TA102, +S-9, 500 ug/plate
  Fold Increase: 1.3
  Mean (Revertant Numbers Per Plate): 283
